Source: patent publication US11617726B2, “Method for preventing, treating, or ameliorating a microbial infection” (priority 2018, dated 2023)

Tested on: Acinetobacter baumannii isolates
Test: Antimicrobial susceptibility test, disc diffusion method (CLSI M100-S24)
Type: cell-based
Parameters: key to Inhibition zone: “NZ” indicated that no zone of inhibition was observed
Conditions: for Inhibition zone: disc diffusion; for susceptibility category: IP disc
Description: A total of 33 non-duplicate, non-consecutive clinical isolates of Multi-Drug Resistant (MDR) Acinetobacter baumannii were collected from burn wards (“AB1-AB33”). Acinetobacter baumannii ATCC BAA 747 and Pseudomonas aeruginosa ATCC 27853 were used as control strains. The isolates were stored at −80° C. in trypticase soy broth containing 20% glycerol.
Antimicrobial susceptibility tests of the collection of isolates were conducted using the disc diffusion method. The experiment was performed according to the recommendations and guidelines of Clinical Laboratory Standard Institutes (CLSI M100-S24; 2014). Clinical and Laboratory Standards Institute (CLSI), “Performance standards for antimicrobial susceptibility testing; twenty-fourth informational supplement,” Document M100-S24, Clinical and Laboratory Standards Institute (CLSI), Wayne, Pa., USA, 2014.
A panel of commercial antibiotic discs (Amoxicillin (AMX), Amoxicillin/clavulanic acid (AMX/CLA), Piperacillin (PIP), Piperacillin/Tazobactam (PIP/TAZ), Ceftazidime (CAZ), Cefotaxime (CTX), Cefepime (FEP), Cefoxitin (FOX), Aztreonam (ATM), Imipenem (IP), Gentamicin (GEN), Amikacin (AK), Neomycin (NEO), Levofloxacin (LEV), Chloramphenicol (CHL), Tetracycline (TET), sulfamethoxazole/trimethoprim (SUL/TRI) was used for susceptibility testing. All commercial antibiotic discs were purchased from BBL (Becton Dickinson, USA).
Forty grams of Mueller-Hinton Agar (MHA) were suspended in 1 Liter distilled water and then boiled to dissolve the powder completely. The medium was sterilized by autoclaving at 121° C. for 15 min. After autoclaving, the medium was cooled to 45° C. and 25 mL of molten agar media was poured into sterile Petri dishes (90 mm diameter) to give a depth of about 4 mm. The surface of the agar was dried to remove excess moisture before use. The plates were stored at 4-8° C. in sealed plastic bags if not used immediately.
The inoculum suspension was prepared by selecting three to five morphologically similar colonies from overnight growth (16-24 h of incubation) on blood agar medium. […] The suspension density was measured using a UV spectrophotometer calibrated with a 0.5 McFarland standard. The density of the suspension was adjusted to McFarland 0.5 by addition of saline or more microorganisms. The adjusted inoculum suspension was used within 60 min of preparation.
A sterile cotton swab was dipped into the bacterial suspension and the excess fluid was removed by turning the swab against the inside wall of the tube to avoid over-inoculation of plates. The inoculum was spread evenly over the entire surface of the agar plate by swabbing in three directions.
The predetermined panel of antimicrobial disks was applied firmly on the inoculated Mueller-Hinton agar surface within 15 min of inoculation of the plates by a disc dispenser device. A maximum of six disks were accommodated on a 90-mm circular plate.
Within 15 min of application of antimicrobial disks, the plates were inverted and incubated aerobically at 35-37° C. for 18-20 h.
After incubation, inhibition zones were measured at the point where no obvious growth is detected by the unaided eye when the plate is held about 30 cm from the eye. Inhibition zone diameters were measured to the nearest millimeter with a ruler. The plates were read from the back of the plate with reflected light against a dark background. Zone diameters were interpreted and categorized as susceptible “S”, intermediate “I”, or resistant “R” according to the CLSI clinical breakpoint tables (see Table 1 and Table 2).

SMILES | Inhibition zone (isolate AB1) | Inhibition zone (isolate AB2) | Inhibition zone (isolate AB3) | Inhibition zone (isolate AB4) | Inhibition zone (isolate AB5) | Inhibition zone (isolate AB6) | Inhibition zone (isolate AB7) | Inhibition zone (isolate AB8) | Inhibition zone (isolate AB9) | Inhibition zone (isolate AB10) | Inhibition zone (isolate AB11) | Inhibition zone (isolate AB12) | Inhibition zone (isolate AB13) | Inhibition zone (isolate AB14) | Inhibition zone (isolate AB15) | Inhibition zone (isolate AB16) | Inhibition zone (isolate AB17) | Inhibition zone (isolate AB18) | Inhibition zone (isolate AB19) | Inhibition zone (isolate AB20) | further results
CC(C)(O/N=C(\C(=O)N[C@@H]1C(=O)N2C(C(=O)[O-])=C(C[n+]3ccccc3)CS[C@H]12)c1csc(N)n1)C(=O)O [CAZ, Ceftazidime] | 20 mm | 17 mm | 26 mm | 21 mm | 9 mm | 28 mm | NZ | NZ | 21 mm | NZ | NZ | NZ | NZ | NZ | NZ | 32 mm | 12 mm | NZ | NZ | NZ | Inhibition zone (isolate AB21): NZ; Inhibition zone (isolate AB22): NZ; Inhibition zone (isolate AB23): NZ; Inhibition zone (isolate AB24): NZ; Inhibition zone (isolate AB25): 17 mm; Inhibition zone (isolate AB26): 15 mm; Inhibition zone (isolate AB27): 8 mm; Inhibition zone (isolate AB28): 8 mm; Inhibition zone (isolate AB29): NZ; Inhibition zone (isolate AB30): NZ; Inhibition zone (isolate AB31): 8 mm; Inhibition zone (isolate AB32): 8 mm; Inhibition zone (isolate AB33): 22 mm
O=C(N[C@H](CO)[C@H](O)c1ccc([N+](=O)[O-])cc1)C(Cl)Cl [CHL, Chloramphenicol] | NZ | 24 mm | 26 mm | 23 mm | 8 mm | NZ | NZ | 7 mm | 24 mm | NZ | NZ | NZ | NZ | NZ | 10 mm | 30 mm | 13 mm | 8 mm | 8 mm | NZ | Inhibition zone (isolate AB21): NZ; Inhibition zone (isolate AB22): NZ; Inhibition zone (isolate AB23): NZ; Inhibition zone (isolate AB24): 8 mm; Inhibition zone (isolate AB25): NZ; Inhibition zone (isolate AB26): 25 mm; Inhibition zone (isolate AB27): NZ; Inhibition zone (isolate AB28): 14 mm; Inhibition zone (isolate AB29): 12 mm; Inhibition zone (isolate AB30): 11 mm; Inhibition zone (isolate AB31): 8 mm; Inhibition zone (isolate AB32): 9 mm; Inhibition zone (isolate AB33): 18 mm
CO/N=C(\C(=O)N[C@@H]1C(=O)N2C(C(=O)O)=C(COC(C)=O)CS[C@H]12)c1csc(N)n1 [CTX, Cefotaxime] | NZ | NZ | 15 mm | 8 mm | NZ | 17 mm | NZ | NZ | 11 mm | NZ | NZ | NZ | NZ | NZ | NZ | 32 mm | NZ | NZ | NZ | NZ | Inhibition zone (isolate AB21): NZ; Inhibition zone (isolate AB22): NZ; Inhibition zone (isolate AB23): NZ; Inhibition zone (isolate AB24): NZ; Inhibition zone (isolate AB25): 16 mm; Inhibition zone (isolate AB26): NZ; Inhibition zone (isolate AB27): NZ; Inhibition zone (isolate AB28): NZ; Inhibition zone (isolate AB29): NZ; Inhibition zone (isolate AB30): NZ; Inhibition zone (isolate AB31): 8 mm; Inhibition zone (isolate AB32): 8 mm; Inhibition zone (isolate AB33): 21 mm
CO/N=C(\C(=O)N[C@@H]1C(=O)N2C(C(=O)[O-])=C(C[N+]3(C)CCCC3)CS[C@H]12)c1csc(N)n1 [FEP, Cefepime] | 20 mm | 16 mm | 18 mm | 14 mm | 7 mm | 21 mm | NZ | NZ | 22 mm | 7 mm | NZ | NZ | NZ | NZ | 8 mm | 35 mm | 11 mm | NZ | NZ | NZ | Inhibition zone (isolate AB21): NZ; Inhibition zone (isolate AB22): NZ; Inhibition zone (isolate AB23): NZ; Inhibition zone (isolate AB24): 7 mm; Inhibition zone (isolate AB25): 10 mm; Inhibition zone (isolate AB26): 14 mm; Inhibition zone (isolate AB27): 8 mm; Inhibition zone (isolate AB28): NZ; Inhibition zone (isolate AB29): NZ; Inhibition zone (isolate AB30): NZ; Inhibition zone (isolate AB31): NZ; Inhibition zone (isolate AB32): NZ; Inhibition zone (isolate AB33): 18 mm
CO[C@@]1(NC(=O)Cc2cccs2)C(=O)N2C(C(=O)O)=C(COC(N)=O)CS[C@@H]21 [FOX, Cefoxitin] | NZ | NZ | NZ | NZ | NZ | NZ | NZ | NZ | NZ | NZ | NZ | NZ | NZ | NZ | NZ | 22 mm | NZ | NZ | NZ | NZ | Inhibition zone (isolate AB21): NZ; Inhibition zone (isolate AB22): NZ; Inhibition zone (isolate AB23): NZ; Inhibition zone (isolate AB24): NZ; Inhibition zone (isolate AB25): NZ; Inhibition zone (isolate AB26): NZ; Inhibition zone (isolate AB27): NZ; Inhibition zone (isolate AB28): NZ; Inhibition zone (isolate AB29): NZ; Inhibition zone (isolate AB30): NZ; Inhibition zone (isolate AB31): 9 mm; Inhibition zone (isolate AB32): NZ; Inhibition zone (isolate AB33): NZ
C[C@@H](O)[C@H]1C(=O)N2C(C(=O)O)=C(SCCN=CN)C[C@H]12 [IP, Imipenem] | NZ | NZ | NZ | NZ | 8 mm | 12 mm | NZ | 7 mm | NZ | NZ | NZ | 11 mm | 9 mm | 15 mm | NZ | 34 mm | 15 mm | NZ | NZ | 15 mm | susceptibility category (isolate AB16): S (Sensitive ≥22); Inhibition zone (isolate AB21): NZ; Inhibition zone (isolate AB22): 15 mm; Inhibition zone (isolate AB23): 20 mm; Inhibition zone (isolate AB24): NZ; susceptibility category (isolate AB25): S (Sensitive ≥22); Inhibition zone (isolate AB25): 23 mm; susceptibility category (isolate AB26): S (Sensitive ≥22); Inhibition zone (isolate AB26): 22 mm; Inhibition zone (isolate AB27): 9 mm; Inhibition zone (isolate AB28): 8 mm; Inhibition zone (isolate AB29): 9 mm; Inhibition zone (isolate AB30): 9 mm; Inhibition zone (isolate AB31): 9 mm; Inhibition zone (isolate AB32): 18 mm; Inhibition zone (isolate AB33): NZ
